Laboratory results from PubChem BioAssay AID504626 (Southern Research Specialized Biocontainment Screening …, 2011).

Tested on: human PBMC, CCR5-tropic HIV-1 replication, RT activity
Test: inhibitors of CCR5-tropic HIV-1 replication in PBMCs, dose response, cell-based, human PBMC, R5-tropic strain, set 3 (AID 504626)

## Cc1c2c(=O)n(-c3nc4ccccc4s3)nc-2cc(O)n1Cc1ccccc1
  IC50: 1.57 µM
